Source: article PMC6627558, “Structures and Bioactivities of Six New Triterpene Glycosides, Psolusosides E, F, G, H, H1, and I and the Corrected Structure of Psolusoside B from the Sea Cucumber Psolus fabricii” (Marine Drugs, 2019)
Counter-ions that a name gives are not always drawn.

Assays:
mouse erythrocytes = assay: Hemolytic activity against mouse erythrocytes; assay type: cell-based
Experimental: (§1) Blood was taken from CD-1 mice (18–20 g). The mice were anesthetized with diethyl ether, their chests were rapidly opened, and blood was collected in cold (4 °C) 10 mM phosphate-buffered saline, pH 7.4 (PBS) without anticoagulant. Erythrocytes were washed 3 times in PBS using at least 10 vol. of washing solution by centrifugation (2000 rpm) for 5 min. Erythrocytes were used at a concentration that provided an optical density of 1.0 at 700 nm for a non-hemolyzed sample. Then, 20 μL of a water solution of test substance with a fixed concentration was added to a well of a 96-well plate containing 180 μL of the erythrocyte suspension. Erythrocyte suspension was incubated with substances for 24 h at 37 °C. After that, the optical density of the obtained solutions was measured and ED50 for hemolytic activity of each compound was calculated.

[1] = tested on: human colorectal adenocarcinoma HT-29 cells; assay: MTS assay, cell viability of HT-29 cells; assay type: cell-based; conditions: 0–20 μM, 24 h
Experimental: (§2) The museum tetraploid strain of murine ascite Ehrlich carcinoma cells from the All-Russian Oncology Center (Moscow, Russia) was used. The cells were separated from the ascites, which were collected on day 7 after inoculation in mouse CD-1 line. The cells were washed of the ascites triply and resuspended in RPMI-1640 medium containing 8 μg/mL gentamicin (BioloT, St-Petersburg, Russia). Neuroblastoma Neuro 2A cells were cultured in DMEM medium containing 10% fetal bovine serum (FBS), (BioloT, St-Petersburg, Russia) and normal epithelial JB-6 cells were cultured in DMEM medium containing 5% fetal bovine serum (FBS), (BioloT, St-Petersburg, Russia) and 1% penicillin/streptomycine (Invitrogen). The HT-29 (ATCC # HTB-38) human colon cancer cell line was grown in monolayer in McCoy’s 5A medium supplemented with 10% (v/v) heat-inactivated FBS, 2 mM L-glutamine, and 1% penicillin-streptomycin in a humidified atmosphere containing 5% CO2. Cells were maintained in a sterile environment and kept in an incubator at 5% CO2 and 37 °C to promote growth. HT-29 cells were sub-cultured every 3–4 days by rinsing with phosphate buffered saline (PBS), adding trypsin to detach the cells from the tissue culture flask, and transferring 10%–20% of the harvested cells to a new flask containing fresh growth media.
The HT-29 cells (1.0 × 10^4/well) were seeded in 96-well plates for 24 h at 37 °C in 5% CO2 incubator. The cells were treated with the tested substances at concentrations range from 0 to 20 μM for an additional 24 h. Subsequently, cells were incubated with 15 μL MTS reagent for 3 h and the absorbance in each well was measured at 490/630 nm using microplate reader “Power Wave XS” (Bio Tek, Winooski, VT, USA). All the experiments were repeated three times, and the mean absorbance values were calculated. The results are expressed as the percentage of inhibition that produced a reduction in absorbance by compound’s treatment compared to the non-treated cells (control).

[2] = tested on: ascite form of mouse Ehrlich carcinoma cells; assay: Cytotoxic activity against ascite form of mouse Ehrlich carcinoma cells (nonspecific esterase / MTT assay); assay type: cell-based
Experimental: as §2
(§3) Cytotoxic activity against ascite form of mouse Ehrlich carcinoma cells was investigated by nonspecific esterase activity assay. In total, 10µL of the test substance solution and 100 μL of the cell suspension were placed into each well of a 96-well microplate. The plate was incubated in a CO2 incubator at 37 °C for 1 or 24 h. A stock solution of the probe fluorescein diacetate (FDA; Sigma, St. Louis, MO, USA) in DMSO (1 mg/mL) was prepared. After incubation of the cells with test compounds, 10 μL of FDA solution (50 μg/mL) was added to each well and the plate was incubated at 37 °C for 15 min. Cells were washed with PBS, and fluorescence was measured with a Fluoroskan Ascent plate reader (Thermo Labsystems, Helsinky, Finland) at λex = 485 nm and λem = 518 nm. All experiments were repeated in triplicate. Cytotoxic activity was expressed as the percent of cell viability. Nonspecific esterase activity assay has been used for determination of cytotoxicity against neuroblastoma Neuro 2A and normal epithelial JB-6 cells.
(§4) The solutions of tested substances in different concentrations (20 µL) and cell suspension (200 µL) were added in wells of 96-well plate and incubated over night at 37 °C and 5% CO2. After incubation, the cells were sedimented by centrifugation, 200 µL of medium from each well were collected, and 100 µL of pure medium were added. Then, 10 µL of MTT solution […] (Sigma, St. Louis, MO, USA) were added in each well. The plate was incubated for 4 h, after which 100 µL SDS-HCl were added to each well, and the plate was incubated at 37 °C for 4–18 h. Optical density was measured at 570 nm and 630–690 nm. Cytotoxic activity of the substances was calculated as the concentration that caused 50% metabolic cell activity inhibition (IC50). The MTT assay has been used for determination of cytotoxic activity against Ehrlich carcinoma cells.

[3] = tested on: mouse neuroblastoma Neuro 2A cells; assay: Cytotoxicity against neuroblastoma Neuro 2A cells (nonspecific esterase activity assay); assay type: cell-based
Experimental: as §2, §3

[4] = tested on: normal epithelial JB-6 cells; assay: Cytotoxicity against normal epithelial JB-6 cells (nonspecific esterase activity assay); assay type: cell-based, mouse
Experimental: as §2, §3

[5] = tested on: human colorectal adenocarcinoma HT-29 cells; assay: Soft agar assay, colony formation and growth of HT-29 cells; assay type: cell-based; conditions: 0–10 μM, 14 days, read-out: Soft Agar Assay ICCF50 (inhibition of colony formation)
Experimental: as §2
The HT-29 cells (8.0 × 10^3) were seeded in 6-well plate and treated with the tested compounds at concentrations range 0–10 μM in 1 mL of 0.3% Basal Medium Eagle (BME) agar containing 10% FBS, 2mM L-glutamine, and 25 μg/mL gentamicin. The cultures were maintained at 37 °C in a 5% CO2 incubator for 14 days, and the cell’s colonies were scored using a microscope “Motic AE 20” (Scientific Instrument Company, Campbell, CA, USA) and the Motic Image Plus version 2.0 (Scientific Instrument Company, Campbell, CA, USA) computer program.

[6] = Hemolytic activity against mouse erythrocytes; assay type: cell-based; conditions: CD-1, mouse erythrocyte suspension, pH 7.4, 24 h at 37 °C, read-out: Cytotoxicity EC50, Erhythrocytes (hemolytic activity)
Experimental: as §1

[7] = Cytotoxic activity against ascite form of mouse Ehrlich carcinoma cells (nonspecific esterase / MTT assay); assay type: cell-based; conditions: ascite form of mouse Ehrlich carcinoma cells; read-out: Cytotoxicity EC50, Ehrlich carcinoma
Experimental: as §2, §3, §4

[8] = Cytotoxicity against neuroblastoma Neuro 2A cells (nonspecific esterase activity assay); assay type: cell-based, mouse; conditions: mouse neuroblastoma Neuro 2A cells
Experimental: as §2, §3

[9] = Cytotoxicity against normal epithelial JB-6 cells (nonspecific esterase activity assay); assay type: cell-based, mouse; conditions: mouse, normal epithelial JB-6 cells
Experimental: as §2, §3

SMILES	EC50 (mouse erythrocytes; 24 h at 37 °C, read-out: Cytotoxicity EC50, Erhythrocytes (hemolytic activity)) [µM]	IC50 [1] [µM]	cytotoxic action against mouse Ehrlich carcinoma cells (in words) ([2]; ascite form)	EC50 ([2]; ascite form of mouse Ehrlich carcinoma cells, read-out: Cytotoxicity EC50, Ehrlich carcinoma) [µM]	EC50 ([3]; mouse neuroblastoma Neuro 2A cells) [µM]	EC50 ([4]; normal epithelial JB-6 cells) [µM]	IC50 [5] [µM]	EC50 at 24 h [6] [µM]	EC50 [7] [µM]	activity against Neuro 2A cells (in words) ([3]; Neuro 2A cells)	EC50 [8] [µM]	cytotoxicity against normal JB-6 cells (in words) ([4]; JB-6 cells)	EC50 [9] [µM]	hemolytic activity (in words) (mouse erythrocytes)	IC50 ([1]; Homo sapiens) [µM]	IC50 ([5]; Homo sapiens, 336 h) [µM]
C=C(C)CCC[C@]1(C)OC(=O)[C@]23CC=C4[C@@H](CC[C@H]5C(C)(C)[C@@H](O[C@@H]6OC[C@@H](O)[C@H](O)[C@H]6O[C@@H]6O[C@H](C)[C@@H](O[C@@H]7O[C@H](COS(=O)(=O)[O-])[C@@H](O)[C@H](O[C@@H]8O[C@H](COS(=O)(=O)[O-])[C@@H](O)[C@H](OC)[C@H]8O)[C@H]7O)[C@H](O)[C@H]6O)CC[C@]45C)[C@]2(C)CC(=O)[C@@H]31.[Na+].[Na+] [Psolusoside A, 3β-O-[6-O-sodium sulfate-3-O-methyl-β-D-glucopyranosyl-(1→3)-6-O-sodium-sulfate-β-D-glucopyranosyl-(1→4)-β-D-quinovopyranosyl-(1→2)-β-D-xylopyranosyl]-16-ketoholosta-9(11),25-diene, reference compound]	1.4	> 20	moderate cytotoxic action	30.9	2.9	7.5	> 10									
C=C(C)CCC[C@]1(C)OC(=O)[C@]23CC=C4[C@@H](CC[C@H]5C(C)(C)[C@@H](O[C@@H]6OC[C@@H](O)[C@H](O)[C@H]6O[C@@H]6O[C@H](CO)[C@@H](O[C@@H]7O[C@H](COS(=O)(=O)O)[C@@H](O)[C@H](O[C@@H]8O[C@H](COS(=O)(=O)O)[C@@H](O)[C@H](OC)[C@H]8O)[C@H]7O)[C@H](O)[C@H]6O)CC[C@]45C)[C@]2(C)CC(=O)[C@@H]31 [Psolusoside G (4), 3β-O-[6-O-sodium-sulfate-3-O-methyl-β-D-glucopyranosyl-(1→3)-6-O-sodium-sulfate-β-D-glucopyranosyl-(1→4)-β-D-glucopyranosyl-(1→2)-β-D-xylopyranosyl]-16-ketoholosta-9(11),25-diene]								4.2	98.3	high activity	7.3	not cytotoxic	> 100			
C=C(C)CCC[C@]1(C)OC(=O)[C@]23CC[C@@H]4C(=CC[C@H]5C(C)(C)[C@@H](O[C@@H]6OC[C@@H](O[C@@H]7O[C@H](COS(=O)(=O)O)[C@@H](O)[C@H](O)[C@H]7O)[C@H](O)[C@H]6O[C@@H]6OC[C@@H](O[C@@H]7O[C@H](COS(=O)(=O)O)[C@@H](O)[C@H](O)[C@H]7O)[C@H](O)[C@H]6O)CC[C@]45C)[C@]2(C)C[C@H](OC(C)=O)[C@@H]31 [Psolusoside I (7), 3β-O-{6-O-sodium sulfate-β-D-glucopyranosyl-(1→4)-β-D-xylopyranosyl-(1→2)-[6-O-sodium sulfate-β-D-glucopyranosyl-(1→4)]-β-D-xylopyranosyl}-16β-acetoxyholosta-7,25-diene]								18.3	87.4		26.8		37.2	moderate hemolytic activity	> 20	10 ± 0.4
